Usually pIC50 stands for the negative decadic logarithm of the IC50, by convention in mol/L.

For ten molecules, IC50 results are on record in US20140107109A1, “AMINO-DIHYDROTHIAZINE AND AMINO-DIOXIDO DIHYDROTHIAZINE COMPOUNDS AS BETA-SECRETASE ANTAGONISTS AND METHODS OF USE” (Amgen Inc., priority 2012, published 2014).

pIC50: −log10 of the molar value. Read-outs that look alike come from different tables or passages of the source. Bounds are passed on as bounds.

The target of one test is T1, Cathepsin D (Cat D) (Homo sapiens, UniProt P07339).
T1 construct: Recombinant Cat D was expressed in CHO cells; made in house; host or cells: CHO cells
T1 sequence (P07339 65-412, species assumed): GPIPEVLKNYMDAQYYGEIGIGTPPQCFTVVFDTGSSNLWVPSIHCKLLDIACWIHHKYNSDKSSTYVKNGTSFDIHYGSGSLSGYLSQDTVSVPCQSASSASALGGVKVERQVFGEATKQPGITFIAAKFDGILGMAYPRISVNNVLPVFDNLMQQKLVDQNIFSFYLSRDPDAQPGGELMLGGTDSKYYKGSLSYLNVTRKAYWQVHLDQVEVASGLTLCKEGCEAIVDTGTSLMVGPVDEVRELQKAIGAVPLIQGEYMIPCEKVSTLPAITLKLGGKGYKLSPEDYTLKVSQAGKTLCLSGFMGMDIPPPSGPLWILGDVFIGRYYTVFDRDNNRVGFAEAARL
Description: In vitro enzymatic Cathepsin D (Cat D) FRET assay. Type of test: biochemical. The conditions noted are these: read-out: CatD IC50. Summed up: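 FRET read-out: a fluorophore/quencher-labelled peptide substrate is cleaved by 9 nM Cat D (recombinant, CHO-expressed) following a one-hour preincubation with inhibitor dilutions in DMSO. Tris buffer added to neutralize pH ends the reaction before fluorescence measurement.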

In test [1] the target is Beta Secretase enzyme (BACE1) (Homo sapiens, UniProt P56817). In words: In vitro enzymatic BACE FRET assay. The conditions noted are these: read-out: BACE1 FRET assay IC50. Type of test: biochemical. Summed up: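 Readout: dequenched fluorescence (ex 488 nm/[…]) after neutralizing with Tris buffer. Reactions, begun by adding 50 nM quenched peptide substrate spanning the BACE cleavage site, were incubated one hour at pH 4.2 in 0.05 M acetate with 100 uM genapol and 10% final DMSO.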
Beta Secretase enzyme (BACE1), sequence (P56817 46-501): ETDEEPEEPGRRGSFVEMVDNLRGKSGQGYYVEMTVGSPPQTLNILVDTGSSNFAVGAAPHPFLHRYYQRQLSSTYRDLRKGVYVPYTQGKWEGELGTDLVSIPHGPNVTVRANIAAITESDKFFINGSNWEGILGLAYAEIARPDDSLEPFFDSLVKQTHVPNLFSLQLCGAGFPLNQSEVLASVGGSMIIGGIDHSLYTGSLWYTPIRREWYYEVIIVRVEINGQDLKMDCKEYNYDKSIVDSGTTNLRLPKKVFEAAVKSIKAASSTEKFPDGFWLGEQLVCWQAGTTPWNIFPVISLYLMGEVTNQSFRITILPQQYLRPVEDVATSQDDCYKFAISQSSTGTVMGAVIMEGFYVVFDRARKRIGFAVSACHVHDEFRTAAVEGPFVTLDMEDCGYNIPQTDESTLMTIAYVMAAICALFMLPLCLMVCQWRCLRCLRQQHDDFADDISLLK

For test [2], the system named is Aβ40 in conditioned medium of cells stably expressing Amyloid Precursor Protein (APP). In words: In vitro BACE cell-based assay (HEK cell assay), Aβ40 sandwich ELISA. The conditions noted are these: Homo sapiens, HEK293. The procedure, abridged: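 Aβ40 in conditioned medium was quantified by time-resolved fluorescence sandwich ELISA (pAb40 capture 3 h at 4 °C, biotin-6E10 detection 2 h at 4 °C) after 24 h compound exposure of APP-expressing cells. Doses spanned 10 points from 100 μM or 10 μM top, 0.1% DMSO; IC50 was derived from percent of control.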

In the case of `CC1(C)C(N)=N[C@](C)(c2cc(Oc3ccccn3)ccc2F)CS1(=O)=O` [Example 103, (R)-5-amino-3-(2-fluoro-5-(pyridin-2-yloxy)phenyl)-3,6,6-trimethyl-3,6-dihydro-2H-1,4-thiazine 1,1-dioxide], the pIC50 on Cathepsin D (Cat D) was 3.61; in test [1], 6.92; in test [2] (Aβ40, 24 h incubation), 6.67.
For the molecule `COc1ccc(CSc2ccc(F)c([C@]3(C)CS(=O)(=O)C(C)(C)C(N)=N3)c2)cc1` [Example 252, (5R)-5-(2-fluoro-5-((4-methoxybenzyl)sulfanyl)phenyl)-2,2,5-trimethyl-5,6-dihydro-2H-1,4-thiazin-3-amine 1,1-dioxide], the pIC50 on Cathepsin D (Cat D) is 4.44; in test [1] (average IC50, enzyme assay) it was 5.92; in test [2] (average IC50, cell assay), 5.72.
The corresponding values for `CC1(C)C(N)=N[C@](C)(c2cc(Nc3ncc(Cl)c4cc(Cl)cnc34)ccc2F)CS1(=O)=O` [Example 192, (R)-5-amino-3-(5-((3,5-dichloro-1,7-naphthyridin-8-yl)amino)-2-fluorophenyl)-3,6,6-trimethyl-3,6-dihydro-2H-1,4-thiazine 1,1-dioxide] are 4.49, 9.15 and 7.44.
As for `Cc1c(C(=O)Nc2ccc(F)c([C@]3(CF)CS(=O)(=O)C4(CCC4)C(N)=N3)c2)nc2ccc(Cl)cn12` [Example 367, N-(3-((7S)-9-amino-7-(fluoromethyl)-5,5-dioxido-5-thia-8-azaspiro[3.5]non-8-en-7-yl)-4-fluorophenyl)-6-chloro-3-methylimidazo[1,2-a]pyridine-2-carboxamide], the pIC50 on Cathepsin D (Cat D) is < 3.40; in test [1] (average IC50, enzyme assay), 8.29; in test [2] (average IC50, HEK cell assay), 7.86.
For `C[C@@]1(c2cc(NC(=O)c3ccc(Cl)cn3)ccc2F)CS(=O)(=O)C2(CC2)C(N)=N1` [Example 199, N-(3-((6R)-8-amino-6-methyl-4,4-dioxido-4-thia-7-azaspiro[2.5]oct-7-en-6-yl)-4-fluorophenyl)-5-chloro-2-pyridinecarboxamide], the pIC50 at Cathepsin D (Cat D) is 4.09; in test [1] (average IC50), 8.72; in test [2] (average IC50, HEK cells), 8.96.
As to `Cc1cc(Cl)cnc1C(=O)Nc1cnc(F)c([C@]2(C)CS(=O)(=O)C3(CCC3)C(N)=N2)c1` [Example 359, N-(5-((7R)-9-amino-7-methyl-5,5-dioxido-5-thia-8-azaspiro[3.5]non-8-en-7-yl)-6-fluoro-3-pyridinyl)-5-chloro-3-methyl-2-pyridinecarboxamide], the negative-log IC50 (pIC50) at Cathepsin D (Cat D) is 3.98; in test [1] (average IC50, enzyme assay), 8.66; in test [2] (average IC50, HEK cell assay) it was 8.28.
As for `CC1(C)C(N)=N[C@](C)(c2cc(Oc3ncc(Cl)cc3Cl)ccc2F)CS1(=O)=O` [Example 299, (5R)-5-(5-((3,5-dichloro-2-pyridinyl)oxy)-2-fluorophenyl)-2,2,5-trimethyl-5,6-dihydro-2H-1,4-thiazin-3-amine 1,1-dioxide], the pIC50 is 4.08 on Cathepsin D (Cat D); 6.76 in test [1] (average IC50, enzyme assay); 6.10 in test [2] (average IC50, HEK cell assay).
Take `Cc1ccc(C#N)c(Oc2ccc(F)c([C@]3(C)CS(=O)(=O)C(C)(C)C(N)=N3)c2)n1` [Example 296, 2-(3-((3R)-5-amino-3,6,6-trimethyl-1,1-dioxido-3,6-dihydro-2H-1,4-thiazin-3-yl)-4-fluorophenoxy)-6-methyl-3-pyridinecarbonitrile]: the pIC50 at Cathepsin D (Cat D) is 3.63; in test [1] (average IC50, enzyme assay) it was 6.58; in test [2] (average IC50, HEK cell assay) it was 6.29.
With `CC1(C)C(N)=N[C@](C)(c2cc(Nc3nccc4cc(Cl)cnc34)cc(F)c2F)CS1(=O)=O` (single isomer, unassigned) [Example 70], the pIC50 at Cathepsin D (Cat D) was 3.79; in test [1] it was 6.08; in test [2] (Aβ40, 24 h incubation), 5.30.
Consider `CC1(C)C(N)=N[C@](C)(c2cc(Nc3nccc4nc(C(F)(F)F)cnc34)cnc2F)CS1(=O)=O` [Example 224, N-(5-((3R)-5-amino-3,6,6-trimethyl-1,1-dioxido-3,6-dihydro-2H-1,4-thiazin-3-yl)-6-fluoro-3-pyridinyl)-2-(trifluoromethyl)pyrido[3,4-b]pyrazin-5-amine], for which the pIC50 on Cathepsin D (Cat D) was 3.34; in test [1] (average IC50, enzyme assay) it was 7.80; in test [2] (average IC50, cell assay) it was 7.40.
